Source: patent EP4151214A1, “RIMEGEPANT FOR TREATMENT OF HUMAN CORONAVIRUS INFECTION” (priority 2021, dated 2023)

What was measured:
[1] = molecular target: SARS-CoV-2 nsp15 (Severe acute respiratory syndrome coronavirus 2, UniProt P0DTD1); experiment: nsp15 endoribonuclease activity assay (gel-based, 32P-labelled 16-mer RNA); assay type: biochemical
Experimental: (§1) Both RNAs were labelled at their 5' end with [^32P]-γ-ATP and T4 Polynucleotide Kinase (Ambion) in a standard reaction. MicroSpin G-50 columns (Cytiva) were used to remove excess [^32P]-γ-ATP. The synthetic RNAs were resuspended in 10 mM of Tris-HCI pH 8.0 and incubated 10 min at 80°C followed by 45 min at 37°C. • Different concentrations (µM) of rimegepant were incubated with 300 nM of nsp15 or with 40 nM-160 nM of nsp14-nsp10 proteins (7 minutes at room temperature), before initiating the in vitro assay through the addition of the P^32-RNA substrate (50 nM). The activity assays were performed in a final volume of 12 µl containing the activity buffer 50 mM HEPES pH 7.4, 1 mM DTT, 5 mM MgCl2 in case of nsp14-nsp10 complex, and 25 mM HEPES pH 7.4, 50 mM NaCl, 1 mM DTT, 10 mM NaHPO4, 5 mM MnCl2 for nsp15. The reactions were incubated at 37°C, and then aliquots of 4 µl were withdrawn at the time-points indicated in the respective images. […] All the experiments were performed at least in triplicate. • Inhibition profile curves were calculated by quantification of gel-based RNase assays. […] The inhibitory effect of rimegepant on SARS-CoV-2 multiplication in Vero E6 cells was evaluated. […] In addition, the viability of cells in culture was assessed by measuring intracellular ATP levels, using a luminescent assay as described above (CellTiter-Glo® Luminescent Cell Viability Assay). […]

[2] = molecular target: nsp14-nsp10 protein complex (Severe acute respiratory syndrome coronavirus 2, UniProt P0DTD1); experiment: nsp14 ExoN activity assay with nsp14-nsp10 complex (gel-based, 32P-labelled H4 RNA); assay type: biochemical, SARS-CoV-2
Experimental: as §1

[3] = test system: SARS-CoV-2; assay type: cell-based
[4] = molecular target: T1, CGRP receptor (Homo sapiens, UniProt O60894+Q16602); conditions: orally disintegrating tablet; cited from earlier work
T1 construct: host or cells: human patients (clinical use)

[5] = cited from earlier work
[6] = cited from earlier work; remark: listed apart in the source

T1 sequence (Q16602 23-461): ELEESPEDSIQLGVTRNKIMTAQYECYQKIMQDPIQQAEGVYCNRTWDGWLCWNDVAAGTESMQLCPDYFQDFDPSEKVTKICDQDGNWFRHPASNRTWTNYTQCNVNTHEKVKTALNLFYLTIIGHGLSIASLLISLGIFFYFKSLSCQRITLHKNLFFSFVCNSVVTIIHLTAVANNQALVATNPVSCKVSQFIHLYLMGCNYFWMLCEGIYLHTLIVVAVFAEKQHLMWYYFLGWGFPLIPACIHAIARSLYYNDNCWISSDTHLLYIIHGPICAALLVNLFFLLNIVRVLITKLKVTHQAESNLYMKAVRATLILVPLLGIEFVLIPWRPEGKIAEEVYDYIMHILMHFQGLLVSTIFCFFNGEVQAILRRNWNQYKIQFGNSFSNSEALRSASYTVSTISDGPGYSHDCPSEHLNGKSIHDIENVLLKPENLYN
T1 sequence (O60894 27-148): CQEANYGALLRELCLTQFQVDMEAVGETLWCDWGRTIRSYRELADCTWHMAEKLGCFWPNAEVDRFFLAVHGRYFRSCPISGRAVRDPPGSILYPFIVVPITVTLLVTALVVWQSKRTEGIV

Question: For `N[C@@H]1c2cccnc2[C@H](OC(=O)N2CCC(n3c(=O)[nH]c4ncccc43)CC2)CC[C@H]1c1cccc(F)c1F` [rimegepant, Rimegepant], which IC50 [1] is on record?
Answer: 98.95 ± 0.28 µM

Question: And the IC50 [2]?
Answer: 1700 µM

Question: What about the “duration of antiviral effect” value ([3]; 175 µM of rimegepant) of the same compound?
Answer: 72 h

Question: And the “rescue of Vero E6 cells infected with SARS-CoV-2” value ([3]; 175 µM, ATP levels)?
Answer: totally rescue the cells from the infection

Question: What about the “duration of effect after a single dose” value [4] of the same compound?
Answer: up to 48 h

Question: What about the “plasma concentrations achieved relative to those at 75 mg” value ([5]; Phase I, without finding a maximum tolerated dose) of the same compound?
Answer: 50 times

Question: What about the “administered dose eliminated unchanged” value ([5]; in vivo) of the same compound?
Answer: Approximately 77%

Question: And the bioavailability ([5]; in vivo)?
Answer: 64%

Question: What about the elimination half-life ([5]; in vivo) of the same compound?
Answer: approximately 11 h

Question: And the “major metabolites (i.e., > 10%) in plasma” value ([5]; in vivo)?
Answer: no major metabolites

Question: And the “Cmax (maximum serum concentrations)” value ([5]; near the low predicted therapeutic dose of 75 mg, Phase I)?
Answer: 784 ng/mL

Question: And the “Tmax (maximum plasma concentrations achieved at)” value ([5]; oral administration of the orally disintegrating tablet)?
Answer: 1.5 h

Question: What about the “maximum tolerated dose (MTD)” value ([6]; Phase I clinical trials) of the same compound?
Answer: not found

Question: And the “well tolerated multiple doses” value ([6]; for 14 days, without significant adverse events (Tong et al 2013))?
Answer: up to 600 mg

Question: And the “well tolerated single doses” value ([6]; healthy subjects, compared to placebo (Tong et al 2013))?
Answer: up to 1500 mg
